# Tests used:
# KA induced SE [1] = assay: KA induced ongoing SE, EEG recording, treatment 2h after KA; format: in vivo, mice; settings: treatment 2h after KA
# Method: (§1) EEG recordings and analysis. WT C57Bl/6J adult male mice (12 weeks) were anesthetized with isofluorane and implanted with EEG/EMG electrodes and allowed to recover for 7 days prior to experimentation. […] 2h following KA administration mice were injected with a saturating concentration of diazepam (DZ) 10 mg/kg (IP) and recordings were extended for a further 60 min. […] LabChart 8 software was used for data analysis. Epileptiform activity was identified by changes in the amplitude of electrographic activity characterized by consistent changes in the power of the Fast Fourier transform (FFT) of the EEG and abnormal activity characterized by periods of rhythmic spiking lasting longer than 30s (Moore et al., 2017, supra; Silayeva et al., 2015, supra; Sivakumaran et al., J. Neurosci. 35, 8291-8296 (2015)).
# To evaluate the potential of KCC2 activators to terminate ongoing SE, the KA model described above was employed. Mice were injected with KA (20 mg/Kg; IP). […] Spectral data were then subjected to FFT and the total EEG power between 1-100 Hz of the 2h following KA treatment (pre-drug) and 30 min following their injection (post-drug) were compared (FIG. 6B). In mice treated with DZ alone variable effects were observed, from large increases to modest reductions in EEG power, but these effects were not significant (FIG. 6C; pre=1.1±0.2×10^−6, post=4.4±7.4×10^−7 μV^2, p=0.214, n=13-14 mice). […] The latency of the treatments to modify EEG power was examined by measuring the time taken for this parameter to be reduced to 50% (FIG. 6E). […] Finally in mice treated with DZ alone 62% were insensitive to the effects of this agent on EEG power.
# KA induced SE [2] = assay: Kainic acid (KA) induced SE, EEG recording, pretreatment; format: in vivo, mice
# From the text: This model was chosen due to the similarities with patients undergoing SE, as KA-induced seizures become refractory to benzodiazepines (BDZs) within minutes (Betjemann and Lowenstein, Lancet Neurol 14, 615-624 (2015); Crawshaw and Cock, (2020a) [Seizure: Eur. J. Epilep. 75 (2020) 145-152] Seizure 80, 282; Lee et at, 2022, supra; Reddy and Kuruba, Int J Mol Sci 14, 18284-18318 (2013)).
# as §1
# To provide quantitative insights on the effects of KA, raw EEG recordings were subject to Fast-Fourier transformation (8K FFT size, Hann (cosine-bell), 87.50% window overlap) for frequencies between 0-100 Hz 2h after KA injection (Lee et at, 2022, supra).
# 30 or 60 min later mice were injected with KA (20 mg/kg) and 2h later with DZ as detailed above.
# [3] = test system: PTZ induced motor seizures; assay: Pentylenetetrazol (PTZ) induced convulsions; format: in vivo, mice; settings: 12.5 mg/kg IV pretreatment
# [4] = test system: panel of 144 protein kinases; assay: SelectScreen panel of 144 protein kinases; format: biochemical; settings: includes PKC isoforms, OSR1, SPAK, WNK
# Method: Aliquots of HEK-293 cells expressing KCC2 were exposed to 30 μM SSA, heated from 37-55° C. The remaining level of soluble native KCC2 at each temperature was measured by immunoblotting and normalized to the level seen at 37° C. which was given a value of 1. […] This panel included protein kinase C isoforms, OSR1, SPAK (STK39) and with-no-lysine kinases (WNK), all of which phosphorylate KCC2 on multiple residues to indirectly modify its activity (Kahle et al., 2013, supra; Smalley et al., 2020, supra).
compound,measurement,setting,value
"C[C@@H]1CN(c2nc3c(c(Nc4ccc(C5CCCCC5)cc4)n2)COC3)CCO1 [Compound A, (R)—N-(4-cyclohexylphenyl)-2-(2-methylmorpholino)-5,7-dihydrofuro[3,4-d]pyrimidin-4-amine]",mice insensitive to DZ effects on EEG power,KA induced SE [1],abolished
same,seizure parameters after injection directly into the hippocampus,"KA induced SE [2]; 10 μM or 20 μM, 30 or 60 min before KA 20 mg/kg, relative to vehicle","increased the latency to the 1st seizure, to SE, and reduced the percentage of time in epileptiform activity"
same,latency to the first seizure,"KA induced SE [2]; 50 mg/kg SC 2h before 20 mg/kg KA IP, vehicle=10.2±2.5",14.4 ± 2.9 min
same,latency to SE,"KA induced SE [2]; 50 mg/kg SC 2h before KA, vehicle=38.3±3.4",54.5 ± 6.9 min
same,time spent in epileptiform activity,"KA induced SE [2]; 50 mg/kg SC 2h before KA, vehicle=85±5.4",62.5±8.4%
same,total EEG power post DZ,"KA induced SE [2]; mice pretreated with Compound A, then DZ 10 mg/kg IP 2h after KA",2.7±3.2×10^−7 μV^2
same,total EEG power 2h after KA (pre DZ),"KA induced SE [2]; pretreated with Compound A, vehicle 4.2±2.4×10^−6",6.9±3.2×10^−7 μV^2
same,development of refractory status epilepticus (RSE),"KA induced SE [2]; pretreatment, 4h later",prevented the development of refractory status epilepticus (RSE)
same,dose of PTZ required to induce forelimb clonus,[3]; Control=51.5±3.1,56.3 ± 3.3 mg/kg
same,dose of PTZ required to induce hindlimb clonus,[3]; Control=84.5±5.1,137.4 ± 7.5 mg/kg
same,activity of panel of 144 protein kinases,[4],did not modify the activity of this kinase panel

# — US20250281497A1, “FUSED AMINO PYRIMIDINE COMPOUNDS FOR TREATMENT OF SEIZURE DISORDERS” (Ovid Therapeutics Inc., priority 2024, published 2025)
